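These data come from cells grown in 96-well plates and exposed to compound for 48 hours at five concentrations. GI50: concentration for 50% inhibition of growth.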 Calls of active or inactive are those of the source. No stated cut-off is given here; in the data, active = GI50 up to about 1.1 µM and inactive = higher.
Legend:
Test in all cases: NCI anticancer screen, dose series, 48 h
COLO 205 = tested on: COLO 205
MOLT-4 = tested on: MOLT-4
SK-OV-3 = tested on: SK-OV-3
SNB-19 = tested on: SNB-19
CAKI-1 = tested on: CAKI-1
OVCAR-4 = tested on: OVCAR-4
HCC 2998 = tested on: HCC 2998
SK-MEL-2 = tested on: SK-MEL-2
SF-539 = tested on: SF-539
HT-29 = tested on: HT-29
EKVX = tested on: EKVX
M14 = tested on: M14
MCF7 = tested on: MCF7
MDA-N = tested on: MDA-N
OVCAR-5 = tested on: OVCAR-5
CCRF-CEM = tested on: CCRF-CEM
HCT-116 = tested on: HCT-116
OVCAR-8 = tested on: OVCAR-8
PC-3 = tested on: PC-3
UACC-62 = tested on: UACC-62

## O=c1[nH]c2cc3cccnc3c(Cl)c2nc1C(F)(F)F
COLO 205
  GI50: 36.4 µM (inactive)
MOLT-4
  GI50: 23.6 µM (inactive)
SK-OV-3
  GI50: 57.3 µM (inactive)
SNB-19
  GI50: 54.7 µM (inactive)
CAKI-1
  GI50: 21.2 µM (inactive)
OVCAR-4
  GI50: 21.8 µM (inactive)
HCC 2998
  GI50: 42 µM (inactive)
SK-MEL-2
  GI50: 48.2 µM (inactive)
SF-539
  GI50: 40.6 µM (inactive)
HT-29
  GI50: 51.3 µM (inactive)
EKVX
  GI50: 9.91 µM (inactive)
M14
  GI50: 28.8 µM (inactive)
MCF7
  GI50: 28.3 µM (inactive)
MDA-N
  GI50: 37.2 µM (inactive)
OVCAR-5
  GI50: > 100 µM (inactive)
CCRF-CEM
  GI50: 28.1 µM (inactive)
HCT-116
  GI50: 43.5 µM (inactive)
OVCAR-8
  GI50: 28.8 µM (inactive)
PC-3
  GI50: 52 µM (inactive)
UACC-62
  GI50: 22 µM (inactive)

## CCCCCCCCCCCCCCCC[N+](C)(C)CCl
COLO 205
  GI50: 1.65 µM (inactive)
MOLT-4
  GI50: 1.84 µM (inactive)
SK-OV-3
  GI50: 6.87 µM (inactive)
SNB-19
  GI50: 1.66 µM (inactive)
CAKI-1
  GI50: 2.67 µM (inactive)
OVCAR-4
  GI50: 2.86 µM (inactive)
HCC 2998
  GI50: 1.66 µM (inactive)
SK-MEL-2
  GI50: 13.3 µM (inactive)
SF-539
  GI50: 2.4 µM (inactive)
HT-29
  GI50: 1.59 µM (inactive)
EKVX
  GI50: 8.61 µM (inactive)
M14
  GI50: 2.31 µM (inactive)
MCF7
  GI50: 2.69 µM (inactive)
MDA-N
  GI50: 3.72 µM (inactive)
OVCAR-5
  GI50: 6.89 µM (inactive)
CCRF-CEM
  GI50: 1.15 µM (inactive)
HCT-116
  GI50: 2.14 µM (inactive)
OVCAR-8
  GI50: 2.61 µM (inactive)
PC-3
  GI50: 2.17 µM (inactive)
UACC-62
  GI50: 2.29 µM (inactive)

## C=C1C(O)C2OC(=O)C(=C)C2C(OC(=O)/C(C)=C/C)CC2(C)OC2C2OC12 (stereo not given)
COLO 205
  GI50: 7.1 µM (inactive)
MOLT-4
  GI50: 0.634 µM (active)
SK-OV-3
  GI50: 43.6 µM (inactive)
SNB-19
  GI50: 19.5 µM (inactive)
CAKI-1
  GI50: 10.2 µM (inactive)
OVCAR-4
  GI50: 2.71 µM (inactive)
HCC 2998
  GI50: 4.89 µM (inactive)
SK-MEL-2
  GI50: 5.47 µM (inactive)
SF-539
  GI50: 6.85 µM (inactive)
HT-29
  GI50: 5.47 µM (inactive)
EKVX
  GI50: 10.4 µM (inactive)
M14
  GI50: 18 µM (inactive)
MCF7
  GI50: 4.44 µM (inactive)
MDA-N
  GI50: 2.2 µM (inactive)
OVCAR-5
  GI50: 5.89 µM (inactive)
CCRF-CEM
  GI50: 12.6 µM (inactive)
HCT-116
  GI50: 5.22 µM (inactive)
OVCAR-8
  GI50: 6.11 µM (inactive)
PC-3
  GI50: 15.3 µM (inactive)
UACC-62
  GI50: 15.3 µM (inactive)

## CCOC(=O)C(NC(=O)c1ccccc1)(c1ccc(S(=O)(=O)Nc2onc(C)c2C)cc1)C(F)(F)F (stereo not given)
COLO 205
  GI50: > 100 µM (inactive)
MOLT-4
  GI50: > 100 µM (inactive)
SK-OV-3
  GI50: 0.495 µM (active)
SNB-19
  GI50: > 100 µM (inactive)
CAKI-1
  GI50: > 100 µM (inactive)
OVCAR-4
  GI50: > 100 µM (inactive)
HCC 2998
  GI50: > 100 µM (inactive)
SK-MEL-2
  GI50: > 100 µM (inactive)
SF-539
  GI50: > 100 µM (inactive)
HT-29
  GI50: > 100 µM (inactive)
EKVX
  GI50: > 100 µM (inactive)
M14
  GI50: > 100 µM (inactive)
MCF7
  GI50: > 100 µM (inactive)
MDA-N
  GI50: > 100 µM (inactive)
OVCAR-5
  GI50: > 100 µM (inactive)
CCRF-CEM
  GI50: > 100 µM (inactive)
HCT-116
  GI50: > 100 µM (inactive)
OVCAR-8
  GI50: > 100 µM (inactive)
PC-3
  GI50: > 100 µM (inactive)
UACC-62
  GI50: > 100 µM (inactive)

## CC[C@@]12CCCN3CC[C@]4(c5cccc(OC)c5N(C(C)=O)[C@@H]4CC1)[C@H]32 [ASPIDOSPERMINE]
COLO 205
  GI50: > 100 µM (inactive)
MOLT-4
  GI50: 25.3 µM (inactive)
SK-OV-3
  GI50: > 100 µM (inactive)
SNB-19
  GI50: > 100 µM (inactive)
CAKI-1
  GI50: > 100 µM (inactive)
OVCAR-4
  GI50: 92.9 µM (inactive)
HCC 2998
  GI50: 23 µM (inactive)
SK-MEL-2
  GI50: 90.4 µM (inactive)
SF-539
  GI50: 78.5 µM (inactive)
HT-29
  GI50: 21 µM (inactive)
EKVX
  GI50: 44.2 µM (inactive)
M14
  GI50: 36.5 µM (inactive)
MCF7
  GI50: 63.1 µM (inactive)
MDA-N
  GI50: 34.6 µM (inactive)
OVCAR-5
  GI50: > 100 µM (inactive)
CCRF-CEM
  GI50: 26.2 µM (inactive)
HCT-116
  GI50: 44.9 µM (inactive)
OVCAR-8
  GI50: > 100 µM (inactive)
PC-3
  GI50: 43 µM (inactive)
UACC-62
  GI50: > 100 µM (inactive)

## NC(=O)CCC(NC(=O)c1c2ccccc2nc2ccccc12)C(=O)O (stereo not given)
COLO 205
  GI50: > 100 µM (inactive)
MOLT-4
  GI50: > 100 µM (inactive)
SK-OV-3
  GI50: > 100 µM (inactive)
SNB-19
  GI50: > 100 µM (inactive)
CAKI-1
  GI50: > 100 µM (inactive)
OVCAR-4
  GI50: > 100 µM (inactive)
HCC 2998
  GI50: > 100 µM (inactive)
SK-MEL-2
  GI50: > 100 µM (inactive)
SF-539
  GI50: > 100 µM (inactive)
HT-29
  GI50: > 100 µM (inactive)
EKVX
  GI50: > 100 µM (inactive)
M14
  GI50: > 100 µM (inactive)
MCF7
  GI50: > 100 µM (inactive)
MDA-N
  GI50: > 100 µM (inactive)
OVCAR-5
  GI50: > 100 µM (inactive)
CCRF-CEM
  GI50: > 100 µM (inactive)
HCT-116
  GI50: > 100 µM (inactive)
OVCAR-8
  GI50: > 100 µM (inactive)
PC-3
  GI50: > 100 µM (inactive)
UACC-62
  GI50: > 100 µM (inactive)

— ChEMBL document CHEMBL1201862, “PubChem BioAssay data set” (2004)
